Legend:
[1] = target: Protein kinase C eta type (Homo sapiens, UniProt P24723); test: Inhibition of recombinant full length human His-tagged PRKCH expressed in baculovirus expression system using serine/threonine-7 peptide as substrate incubated for 60 mins in presence of ATP by Z'-LYTE assay
[2] = target: Fibroblast growth factor receptor 3 (Homo sapiens, UniProt P22607); test: Inhibition of recombinant His-tagged human FGFR3 (399 to 806 residues) cytoplasmic domain expressed in baculovirus expression system using Tyr 04 peptide as substrate after 1 hr in presence of ATP by Z'-LYTE assay
[3] = target: RAC-gamma serine/threonine-protein kinase (Homo sapiens, UniProt Q9Y243); test: Inhibition of recombinant full length human His-tagged AKT3 expressed in baculovirus expression system using Ser/Thr-06 peptide as substrate incubated for 60 mins in presence of ATP by Z'-LYTE assay
Ephrin type-A receptor 8 = Ephrin type-A receptor 8 (Homo sapiens, UniProt P29322); test: Inhibition of recombinant human GST-tagged EPHA8 catalytic domain (565 to 1005 residues) expressed in baculovirus expression system using tyrosine-2 peptide as substrate incubated for 60 mins in presence of ATP by Z'-LYTE assay
[4] = target: Proto-oncogene tyrosine-protein kinase receptor Ret (Homo sapiens, UniProt P07949, Y791F); test: Inhibition of recombinant human GST-tagged RET Y791F mutant cytoplasmic domain expressed in baculovirus expression system using tyr02 peptide as substrate incubated for 60 mins in presence of ATP by Z'-LYTE assay
[5] = target: Tyrosine-protein kinase Lck (Homo sapiens, UniProt P06239); test: Inhibition of recombinant full length human His-tagged LCK expressed in baculovirus expression system using tyrosine-2 peptide as substrate incubated for 60 mins in presence of ATP by Z'-LYTE assay
[6] = target: Sodium-dependent serotonin transporter (Homo sapiens) (UniProt P31645); test: Displacement of [3H]paroxetine from full length recombinant human […] expressed in HEK293 cells at 10 uM after 60 mins by radiometric scintillation analysis relative to control; type: cell-based
[7] = target: Serine/threonine-protein kinase D1 (Homo sapiens, UniProt Q15139); test: Inhibition of recombinant full length human GST-tagged PKCmu expressed in baculovirus expression system using serine/threonine-17 peptide as substrate incubated for 60 mins in presence of ATP by Z'-LYTE assay
[8] = Oral bioavailability in rat at 0.5 mg/kg; type: ADME, organism-based; details: in vivo
[9] = target: Peroxisome proliferator-activated receptor gamma (Homo sapiens) (UniProt P37231); test: Displacement of [3H]rosiglitazone from […] human recombinant PPARgamma LBD domain expressed in insect cells at 10 uM measured after 24 hrs by radiometric scintillation analysis relative to control
[10] = target: Cannabinoid receptor 2 (Homo sapiens) (UniProt P34972); test: Displacement of [3H]WIN55212-2 from recombinant full length human recombinant CB2 receptor expressed in CHOK1 cells at 10 uM measured after 90 mins by radiometric scintillation analysis relative to control; type: cell-based; details: CHO-K1
[11] = target: Tyrosine-protein kinase ABL1 (Homo sapiens, UniProt P00519, T315I); test: Inhibition of recombinant full length human His-tagged ABL1 T315I mutant cytoplasmic domain expressed in baculovirus expression system using tyrosine-2 peptide as substrate incubated for 60 mins in presence of ATP by Z'-LYTE assay
[12] = target: 5-hydroxytryptamine receptor 6 (Homo sapiens) (UniProt P50406); test: Displacement of [3H] lysergic acid diethylamide from full length human recombinant 5HT6 receptor expressed in HeLa/E6-7 cells at 10 uM measured after 120 mins by radiometric scintillation analysis relative to control; type: cell-based
[13] = target: Progesterone receptor (Homo sapiens) (UniProt P06401); test: Inhibition of human progesterone B receptor at 10 uM relative to control
[14] = target: Beta-adrenergic receptor kinase 1 (Homo sapiens, UniProt P25098); test: Inhibition of recombinant full length human His-tagged GRK2 expressed in baculovirus expression system using serine/threonine-16 peptide as substrate incubated for 60 mins in presence of ATP by Z'-LYTE assay
[15] = target: Melanocortin receptor 5 (Homo sapiens) (UniProt P33032); test: Displacement of [125I]NDP-alpha-MSH from full length human recombinant MC5 receptor expressed in HEK293 cells at 10 uM measured after 120 mins by radiometric scintillation analysis relative to control; type: cell-based
[16] = Volume of drug distribution in dog at 0.5 mg/kg, iv or 1 mg/kg, po; type: ADME, organism-based, Canis lupus familiaris; details: in vivo
Aurora kinase C = Aurora kinase C (Homo sapiens, UniProt Q9UQB9); test: Inhibition of recombinant full length GST-tagged human AURKC expressed in baculovirus expression system using Ser/Thr-19 peptide as substrate incubated for 60 mins in presence of ATP by Z'-LYTE assay
[17] = target: Tyrosine-protein kinase Blk (Homo sapiens, UniProt P51451); test: Inhibition of recombinant full length human His-tagged BLK cytoplasmic domain expressed in baculovirus expression system using tyrosine-1 peptide as substrate incubated for 60 mins in presence of ATP by Z'-LYTE assay
[18] = target: Dual specificity protein kinase CLK2 (Homo sapiens, UniProt P49760); test: Inhibition of recombinant human GST-tagged CLK2 catalytic domain (137 to 498 residues) expressed in baculovirus expression system using serine/threonine-6 peptide as substrate incubated for 60 mins in presence of ATP by Z'-LYTE assay
Rattus norvegicus = species: Rattus norvegicus; test: Displacement of [3H]GABA from Wistar rat brain GABA at 10 uM after 20 mins by radiometric scintillation analysis relative to control
[19] = target: Tyrosine-protein kinase ABL1 (Homo sapiens, UniProt P00519); test: Inhibition of recombinant full length human His-tagged ABL1 cytoplasmic domain expressed in baculovirus expression system using tyrosine-2 peptide as substrate incubated for 60 mins in presence of ATP by Z'-LYTE assay
[20] = target: Mast/stem cell growth factor receptor Kit (Homo sapiens, UniProt P10721, T670I); test: Inhibition of recombinant human His-tagged KIT (544 to 976 residues) harboring T670I mutant expressed in baculovirus expression system using tyrosine-6 peptide as substrate incubated for 60 mins in presence of ATP by Z'-LYTE assay
[21] = target: Eukaryotic elongation factor 2 kinase (Homo sapiens, UniProt O00418); test: Inhibition of recombinant human full length GST-tagged EEF2K expressed in Escherichia coli expression system using serine/threonine-24 peptide as substrate incubated for 60 mins in presence of ATP by Z'-LYTE assay
[22] = target: Mitogen-activated protein kinase 11 (Homo sapiens, UniProt Q15759); test: Inhibition of recombinant full length human His-tagged p38beta expressed in baculovirus expression system using serine/threonine-15 peptide as substrate incubated for 60 mins in presence of ATP by Z'-LYTE assay
[23] = target: Tyrosine-protein kinase receptor UFO (Homo sapiens, UniProt P30530); test: Inhibition of recombinant full length human GST-tagged AXL expressed in insect expression system using tyrosine-6 peptide as substrate incubated for 60 mins in presence of ATP by Z'-LYTE assay

Sequence of Serine/threonine-protein kinase D1 (Q15139 whole entry): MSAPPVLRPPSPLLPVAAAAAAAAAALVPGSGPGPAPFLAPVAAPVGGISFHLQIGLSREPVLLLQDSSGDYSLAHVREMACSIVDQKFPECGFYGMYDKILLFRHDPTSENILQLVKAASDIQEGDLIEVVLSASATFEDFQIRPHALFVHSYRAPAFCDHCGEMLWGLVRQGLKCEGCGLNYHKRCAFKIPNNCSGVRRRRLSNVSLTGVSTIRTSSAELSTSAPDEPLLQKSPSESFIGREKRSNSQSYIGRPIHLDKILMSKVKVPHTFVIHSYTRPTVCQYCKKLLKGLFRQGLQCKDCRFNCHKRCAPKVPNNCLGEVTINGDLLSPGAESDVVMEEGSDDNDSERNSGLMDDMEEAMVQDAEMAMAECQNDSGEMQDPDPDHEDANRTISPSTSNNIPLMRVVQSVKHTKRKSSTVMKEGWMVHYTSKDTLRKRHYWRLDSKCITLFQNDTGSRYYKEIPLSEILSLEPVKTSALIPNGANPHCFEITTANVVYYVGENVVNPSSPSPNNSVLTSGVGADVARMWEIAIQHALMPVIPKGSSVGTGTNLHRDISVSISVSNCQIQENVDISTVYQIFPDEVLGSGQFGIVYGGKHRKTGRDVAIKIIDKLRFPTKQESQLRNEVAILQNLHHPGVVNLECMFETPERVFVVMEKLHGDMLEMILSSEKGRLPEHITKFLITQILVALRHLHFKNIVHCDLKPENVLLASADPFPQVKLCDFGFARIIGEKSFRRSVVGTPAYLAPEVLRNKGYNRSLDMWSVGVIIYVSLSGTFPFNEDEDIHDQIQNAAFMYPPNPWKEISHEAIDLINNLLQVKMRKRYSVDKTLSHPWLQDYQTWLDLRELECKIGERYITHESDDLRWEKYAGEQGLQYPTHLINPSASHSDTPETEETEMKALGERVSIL
Sequence of Melanocortin receptor 5 (Homo sapiens) (P33032 whole entry): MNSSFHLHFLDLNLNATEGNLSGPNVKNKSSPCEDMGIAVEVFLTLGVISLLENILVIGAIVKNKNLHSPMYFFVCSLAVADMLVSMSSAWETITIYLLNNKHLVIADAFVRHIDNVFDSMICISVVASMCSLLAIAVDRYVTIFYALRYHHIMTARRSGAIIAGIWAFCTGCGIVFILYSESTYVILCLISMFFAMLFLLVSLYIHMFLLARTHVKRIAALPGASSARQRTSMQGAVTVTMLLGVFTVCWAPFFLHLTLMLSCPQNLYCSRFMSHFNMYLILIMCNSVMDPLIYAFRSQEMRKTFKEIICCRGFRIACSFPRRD
Sequence of Cannabinoid receptor 2 (Homo sapiens) (P34972 whole entry, the tested form may be a part): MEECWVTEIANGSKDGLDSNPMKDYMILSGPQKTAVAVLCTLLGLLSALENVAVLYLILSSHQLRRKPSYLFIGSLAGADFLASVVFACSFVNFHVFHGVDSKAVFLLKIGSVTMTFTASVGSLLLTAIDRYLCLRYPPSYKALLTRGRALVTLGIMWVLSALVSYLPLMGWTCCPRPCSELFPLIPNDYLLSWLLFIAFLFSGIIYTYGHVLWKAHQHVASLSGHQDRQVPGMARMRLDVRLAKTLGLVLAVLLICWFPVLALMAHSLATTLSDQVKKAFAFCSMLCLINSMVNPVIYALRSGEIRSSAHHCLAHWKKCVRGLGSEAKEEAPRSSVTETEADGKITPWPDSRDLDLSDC
Sequence of Ephrin type-A receptor 8 (P29322 whole entry, the tested form may be a part): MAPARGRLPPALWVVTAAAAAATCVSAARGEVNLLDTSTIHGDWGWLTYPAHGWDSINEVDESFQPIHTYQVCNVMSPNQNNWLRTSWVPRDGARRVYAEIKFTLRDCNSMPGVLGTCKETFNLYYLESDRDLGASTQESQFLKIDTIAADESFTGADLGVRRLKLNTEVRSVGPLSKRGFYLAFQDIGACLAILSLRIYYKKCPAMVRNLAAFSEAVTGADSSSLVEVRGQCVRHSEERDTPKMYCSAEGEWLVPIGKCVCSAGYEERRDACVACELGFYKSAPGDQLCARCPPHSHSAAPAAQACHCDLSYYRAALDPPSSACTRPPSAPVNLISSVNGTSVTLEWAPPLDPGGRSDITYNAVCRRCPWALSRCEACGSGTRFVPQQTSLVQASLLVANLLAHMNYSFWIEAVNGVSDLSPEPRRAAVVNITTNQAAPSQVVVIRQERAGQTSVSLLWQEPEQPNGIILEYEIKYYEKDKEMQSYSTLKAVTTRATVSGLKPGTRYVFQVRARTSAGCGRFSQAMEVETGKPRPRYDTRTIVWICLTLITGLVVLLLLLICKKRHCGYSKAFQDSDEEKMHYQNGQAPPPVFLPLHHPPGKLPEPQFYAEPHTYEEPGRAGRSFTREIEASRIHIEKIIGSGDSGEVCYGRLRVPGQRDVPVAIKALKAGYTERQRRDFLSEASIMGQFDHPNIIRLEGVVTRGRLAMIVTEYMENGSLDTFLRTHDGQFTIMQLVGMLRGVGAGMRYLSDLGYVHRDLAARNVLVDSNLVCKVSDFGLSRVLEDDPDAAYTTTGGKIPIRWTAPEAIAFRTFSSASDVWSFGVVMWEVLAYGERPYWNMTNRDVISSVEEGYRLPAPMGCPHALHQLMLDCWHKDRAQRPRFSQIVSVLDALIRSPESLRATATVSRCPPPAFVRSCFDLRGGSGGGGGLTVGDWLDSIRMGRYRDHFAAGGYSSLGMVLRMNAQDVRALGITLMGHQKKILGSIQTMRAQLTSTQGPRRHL
Sequence of Aurora kinase C (Q9UQB9 whole entry, the tested form may be a part): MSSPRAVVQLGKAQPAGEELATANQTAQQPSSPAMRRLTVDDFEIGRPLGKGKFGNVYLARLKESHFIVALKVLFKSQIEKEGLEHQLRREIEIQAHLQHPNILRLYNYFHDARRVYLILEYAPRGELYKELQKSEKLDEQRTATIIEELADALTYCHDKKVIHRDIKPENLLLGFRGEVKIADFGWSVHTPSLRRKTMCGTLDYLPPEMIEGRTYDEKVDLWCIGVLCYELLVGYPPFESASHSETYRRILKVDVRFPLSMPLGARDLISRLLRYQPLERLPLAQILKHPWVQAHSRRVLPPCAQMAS
Sequence of Mast/stem cell growth factor receptor Kit (P10721 26-976 T670I limits assumed): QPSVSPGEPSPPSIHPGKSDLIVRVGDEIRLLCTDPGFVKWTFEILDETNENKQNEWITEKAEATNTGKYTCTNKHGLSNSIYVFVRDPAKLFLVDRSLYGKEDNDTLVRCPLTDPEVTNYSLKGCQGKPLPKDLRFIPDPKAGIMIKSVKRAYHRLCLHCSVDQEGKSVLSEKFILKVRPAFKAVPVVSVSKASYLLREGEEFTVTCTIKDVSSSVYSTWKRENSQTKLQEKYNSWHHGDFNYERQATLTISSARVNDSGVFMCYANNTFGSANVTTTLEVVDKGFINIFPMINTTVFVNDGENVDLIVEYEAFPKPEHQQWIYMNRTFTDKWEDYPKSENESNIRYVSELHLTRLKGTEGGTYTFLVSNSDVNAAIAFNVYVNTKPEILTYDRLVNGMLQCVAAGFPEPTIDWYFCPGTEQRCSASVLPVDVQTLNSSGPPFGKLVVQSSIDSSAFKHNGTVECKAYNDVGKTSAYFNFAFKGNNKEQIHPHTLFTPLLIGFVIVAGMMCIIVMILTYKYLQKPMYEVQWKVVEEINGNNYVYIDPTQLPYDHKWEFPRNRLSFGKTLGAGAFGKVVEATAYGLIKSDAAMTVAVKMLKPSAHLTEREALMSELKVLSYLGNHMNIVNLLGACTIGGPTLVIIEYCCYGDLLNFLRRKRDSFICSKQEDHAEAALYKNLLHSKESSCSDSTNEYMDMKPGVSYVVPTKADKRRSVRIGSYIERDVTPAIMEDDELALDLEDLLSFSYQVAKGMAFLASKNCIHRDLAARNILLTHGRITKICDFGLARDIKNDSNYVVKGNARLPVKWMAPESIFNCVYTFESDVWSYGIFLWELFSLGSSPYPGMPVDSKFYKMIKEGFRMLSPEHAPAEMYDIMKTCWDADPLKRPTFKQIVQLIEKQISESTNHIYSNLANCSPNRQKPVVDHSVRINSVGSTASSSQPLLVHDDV
Sequence of Tyrosine-protein kinase Lck (P06239 whole entry): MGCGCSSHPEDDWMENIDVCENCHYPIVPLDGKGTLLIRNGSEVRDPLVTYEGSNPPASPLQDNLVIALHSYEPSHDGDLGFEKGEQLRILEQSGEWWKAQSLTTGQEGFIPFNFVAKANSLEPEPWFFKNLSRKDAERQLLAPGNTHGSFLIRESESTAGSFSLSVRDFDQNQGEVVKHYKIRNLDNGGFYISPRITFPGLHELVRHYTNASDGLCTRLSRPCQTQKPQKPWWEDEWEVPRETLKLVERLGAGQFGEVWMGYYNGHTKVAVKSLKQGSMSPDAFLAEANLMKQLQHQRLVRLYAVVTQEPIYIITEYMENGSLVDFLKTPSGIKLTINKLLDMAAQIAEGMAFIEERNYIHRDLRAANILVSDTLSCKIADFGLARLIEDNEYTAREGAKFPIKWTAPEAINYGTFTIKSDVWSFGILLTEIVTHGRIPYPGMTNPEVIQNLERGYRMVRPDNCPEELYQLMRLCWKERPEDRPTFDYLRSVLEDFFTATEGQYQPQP
Sequence of Sodium-dependent serotonin transporter (Homo sapiens) (P31645 whole entry, looked up): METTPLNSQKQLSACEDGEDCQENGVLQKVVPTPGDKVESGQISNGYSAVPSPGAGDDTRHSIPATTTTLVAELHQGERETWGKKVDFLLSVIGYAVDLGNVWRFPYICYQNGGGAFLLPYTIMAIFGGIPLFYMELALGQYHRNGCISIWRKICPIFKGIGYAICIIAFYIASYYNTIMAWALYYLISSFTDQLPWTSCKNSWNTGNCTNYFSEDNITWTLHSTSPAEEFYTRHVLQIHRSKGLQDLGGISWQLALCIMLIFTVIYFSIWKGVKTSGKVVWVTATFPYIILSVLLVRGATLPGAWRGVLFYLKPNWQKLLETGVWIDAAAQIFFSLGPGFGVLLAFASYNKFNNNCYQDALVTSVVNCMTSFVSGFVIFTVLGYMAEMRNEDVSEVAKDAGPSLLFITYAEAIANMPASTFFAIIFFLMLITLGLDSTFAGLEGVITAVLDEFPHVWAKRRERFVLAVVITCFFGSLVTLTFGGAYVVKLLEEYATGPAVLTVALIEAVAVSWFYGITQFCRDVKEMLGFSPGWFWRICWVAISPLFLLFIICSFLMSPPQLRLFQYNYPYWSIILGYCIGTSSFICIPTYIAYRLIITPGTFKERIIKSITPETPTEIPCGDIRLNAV

C[C@@H]1C[C@H]1C(=O)N1CCN(c2cnc(C#N)c(-c3cnn(C)c3)n2)C[C@H]1C
18%: inhibition (Rattus norvegicus)
1.1 L/kg: Vd [16]
22%: inhibition [15]
2%: inhibition [10]
7%: inhibition [9] | inhibition [12]
0%: inhibition [6] | inhibition [13]
> 100 µM: IC50 [1] | IC50 [2] | IC50 [3] | IC50 (Ephrin type-A receptor 8) | IC50 [4] | IC50 [5] | IC50 [7] | IC50 [11] | IC50 [14] | IC50 (Aurora kinase C) | IC50 [17] | IC50 [18] | IC50 [19] | IC50 [20] | IC50 [21] | IC50 [22] | IC50 [23]
79%: bioavailability [8]
